In ChEMBL document CHEMBL2086308, “Cytotoxic 2-phenyacrylnitriles, the importance of the cyanide moiety and discovery of potent broad spectrum cytotoxic agents” (2012):

Legend:
Type in all cases: functional
[1] = system: MCF7; assay: Growth inhibition of human MCF7 cells assessed as reduction in cell growth after 72 hrs by MTT assay; conditions: MCF7, 72 h
[2] = system: HT-29; assay: Growth inhibition of human HT-29 cells assessed as reduction in cell growth after 72 hrs by MTT assay; conditions: HT-29, 72 h
[3] = system: SW480; assay: Growth inhibition of human SW480 cells assessed as reduction in cell growth after 72 hrs by MTT assay; conditions: SW480, 72 h
[4] = system: A2780; assay: Growth inhibition of human A2780 cells assessed as reduction in cell growth after 72 hrs by MTT assay; conditions: A2780, 72 h
[5] = system: NCI-H460; assay: Growth inhibition of human H460 cells assessed as reduction in cell growth after 72 hrs by MTT assay; conditions: NCI-H460, 72 h
[6] = system: A-431; assay: Growth inhibition of human A431 cells assessed as reduction in cell growth after 72 hrs by MTT assay; conditions: A-431, 72 h
[7] = system: DU-145; assay: Growth inhibition of human DU145 cells assessed as reduction in cell growth after 72 hrs by MTT assay; conditions: DU-145, 72 h
[8] = Growth inhibition of human BE(2)-C cells assessed as reduction in cell growth after 72 hrs by MTT assay
[9] = Growth inhibition of human SJ-G2 cells assessed as reduction in cell growth after 72 hrs by MTT assay; conditions: SJ-G2, 72 h
[10] = system: MIA PaCa-2; assay: Growth inhibition of human MIAPaCa2 cells assessed as reduction in cell growth after 72 hrs by MTT assay; conditions: MIA PaCa-2, 72 h
[11] = Growth inhibition of mouse SMA cells assessed as reduction in cell growth after 72 hrs by MTT assay
[12] = system: HT-29; assay: Growth inhibition of human HT-29 cells assessed as reduction in cell growth at 25uM after 72 hrs by MTT assay; conditions: HT-29, 72 h, read-out: GI
[13] = system: SW480; assay: Growth inhibition of human SW480 cells assessed as reduction in cell growth at 25uM after 72 hrs by MTT assay; conditions: SW480, 72 h, read-out: GI
[14] = system: MCF7; assay: Growth inhibition of human MCF7 cells assessed as reduction in cell growth at 25uM after 72 hrs by MTT assay; conditions: MCF7, 72 h, read-out: GI
[15] = system: A2780; assay: Growth inhibition of human A2780 cells assessed as reduction in cell growth at 25uM after 72 hrs by MTT assay; conditions: A2780, 72 h, read-out: GI
[16] = system: NCI-H460; assay: Growth inhibition of human H460 cells assessed as reduction in cell growth at 25uM after 72 hrs by MTT assay; conditions: NCI-H460, 72 h, read-out: GI
[17] = system: A-431; assay: Growth inhibition of human A431 cells assessed as reduction in cell growth at 25uM after 72 hrs by MTT assay; conditions: A-431, 72 h, read-out: GI
[18] = system: DU-145; assay: Growth inhibition of human DU145 cells assessed as reduction in cell growth at 25uM after 72 hrs by MTT assay; conditions: DU-145, 72 h, read-out: GI
[19] = Growth inhibition of human BE(2)-C cells assessed as reduction in cell growth at 25uM after 72 hrs by MTT assay; conditions: read-out: GI
[20] = Growth inhibition of human SJ-G2 cells assessed as reduction in cell growth at 25uM after 72 hrs by MTT assay; conditions: SJ-G2, 72 h, read-out: GI
[21] = system: MIA PaCa-2; assay: Growth inhibition of human MIAPaCa2 cells assessed as reduction in cell growth at 25uM after 72 hrs by MTT assay; conditions: MIA PaCa-2, 72 h, read-out: GI
[22] = Growth inhibition of mouse SMA cells assessed as reduction in cell growth at 25uM after 72 hrs by MTT assay; conditions: read-out: GI

| GI50 [1] | GI50 [2] | GI50 [3] | GI50 [4] | GI50 [5] | GI50 [6] | GI50 [7] | GI50 [10] | Compound | GI50 [8] | GI50 [9] | GI50 [11] | inhibition of growth at 25 µM [12] | inhibition of growth at 25 µM [13] | inhibition of growth at 25 µM [14] | inhibition of growth at 25 µM [15] | inhibition of growth at 25 µM [16] | inhibition of growth at 25 µM [17] | inhibition of growth at 25 µM [18] | inhibition of growth at 25 µM [19] | inhibition of growth at 25 µM [20] | also measured |
| --- | --- | --- | --- | --- | --- | --- | --- | --- | --- | --- | --- | --- | --- | --- | --- | --- | --- | --- | --- | --- | --- |
| 0.127 µM | 3.1 µM | 8.4 µM | 12 µM | 69 µM | 7.1 µM | 18 µM | 27 µM | N#C/C(=C\c1ccc([N+](=O)[O-])cc1)c1ccc(Cl)c(Cl)c1 | 8.9 µM | 14 µM | – | – | – | – | – | – | – | – | – | – | – |
| 31 µM | 35 µM | 49 µM | 41 µM | 36 µM | 53 µM | 45 µM | 35 µM | N#C/C(=C\c1ccc(C(F)(F)F)cc1)c1ccc(Cl)c(Cl)c1 | 43 µM | 41 µM | 45 µM | – | – | – | – | – | – | – | – | – | – |
| 1.3 µM | 0.85 µM | 2.1 µM | 0.9 µM | 1 µM | 0.8 µM | 3.1 µM | 1.6 µM | N#C/C(=C\c1c[nH]c2ccccc12)c1ccc(Cl)c(Cl)c1 | 1 µM | 1.7 µM | 1.3 µM | – | – | – | – | – | – | – | – | – | – |
| 7 µM | 36 µM | 45 µM | 38 µM | 52 µM | 39 µM | 42 µM | 46 µM | N#C/C(=C\c1ccco1)c1ccc(Cl)c(Cl)c1 | 38 µM | 50 µM | 36 µM | – | – | – | – | – | – | – | – | – | – |
| 6.5 µM | 9.3 µM | 5.6 µM | 9.5 µM | 10 µM | 10 µM | 18 µM | 11 µM | N#C/C(=C\c1ccc(F)cc1)c1ccc(Cl)c(Cl)c1 | 13 µM | 16 µM | – | – | – | – | – | – | – | – | – | – | – |
| 0.6 µM | 0.52 µM | 1.4 µM | 0.7 µM | 0.7 µM | 0.6 µM | 1.4 µM | 0.7 µM | COc1ccc(/C=C(\C#N)c2ccc(Cl)c(Cl)c2)cc1 | 2.7 µM | 1.5 µM | – | – | – | – | – | – | – | – | – | – | – |
| – | – | – | – | – | – | – | – | O=C(O)/C(=C\c1ccc([N+](=O)[O-])cc1)c1ccc(Cl)c(Cl)c1 | – | – | – | 28% | < 10% | 11% | < 10% | < 10% | < 10% | < 10% | < 10% | < 10% | inhibition of growth at 25 µM [21]: < 10%; inhibition of growth at 25 µM [22]: < 10% |
| – | – | – | – | – | – | – | – | COc1ccc(/C=C(\C(=O)O)c2ccc(Cl)c(Cl)c2)cc1 | – | – | – | 11% | < 10% | < 10% | < 10% | < 10% | < 10% | < 10% | < 10% | < 10% | inhibition of growth at 25 µM [21]: < 10%; inhibition of growth at 25 µM [22]: < 10% |
| – | – | – | – | – | – | – | – | N#C/C(=C\c1ccc(-c2ccccc2)o1)c1ccc(Cl)c(Cl)c1 | – | – | – | 15% | < 10% | < 10% | 13% | 11% | < 10% | < 10% | < 10% | < 10% | inhibition of growth at 25 µM [21]: < 10%; inhibition of growth at 25 µM [22]: < 10% |
| – | – | – | – | – | – | – | – | N#C/C(=C\c1ccc(CO)o1)c1ccc(Cl)c(Cl)c1 | – | – | – | 41% | < 10% | 27% | 25% | 30% | < 10% | < 10% | < 10% | 27% | inhibition of growth at 25 µM [21]: < 10%; inhibition of growth at 25 µM [22]: 16% |
| – | – | – | – | – | – | – | – | N#C/C(=C\c1cc2ccccc2o1)c1ccc(Cl)c(Cl)c1 | – | – | – | 43% | 43% | 40% | 49% | 36% | 54% | 14% | 20% | 46% | inhibition of growth at 25 µM [21]: 47%; inhibition of growth at 25 µM [22]: 55% |
| – | – | – | – | – | – | – | – | Cc1ccc(/C=C(\C#N)c2ccc(Cl)c(Cl)c2)o1 | – | – | – | 58% | 47% | 68% | 43% | 40% | 46% | < 10% | 50% | 32% | inhibition of growth at 25 µM [21]: 36%; inhibition of growth at 25 µM [22]: 33% |
| 2.8 µM | 1.9 µM | 3.8 µM | 2.2 µM | 2.2 µM | 2.1 µM | 5.6 µM | 2.4 µM | Cc1[nH]c2ccccc2c1/C=C(\C#N)c1ccc(Cl)c(Cl)c1 | 2 µM | 4 µM | 2.9 µM | – | – | – | – | – | – | – | – | – | – |
| 3.7 µM | 2.8 µM | 4.7 µM | 3.2 µM | 3 µM | 3 µM | 7.4 µM | 3.7 µM | Cc1ccc2[nH]cc(/C=C(\C#N)c3ccc(Cl)c(Cl)c3)c2c1 | 3.4 µM | 5.3 µM | 4.1 µM | – | – | – | – | – | – | – | – | – | – |
| 2.3 µM | 7.1 µM | 8.8 µM | 7.4 µM | 8.7 µM | 7.7 µM | 12 µM | 11 µM | N#C/C(=C\c1c[nH]c2ccc(Cl)cc12)c1ccc(Cl)c(Cl)c1 | 8.6 µM | 9.7 µM | 6.7 µM | – | – | – | – | – | – | – | – | – | – |
| 6.9 µM | 7 µM | 8.2 µM | 6.8 µM | 7.5 µM | 7.3 µM | 13 µM | 9 µM | N#C/C(=C\c1c[nH]c2ccc(Br)cc12)c1ccc(Cl)c(Cl)c1 | 7 µM | 10 µM | 9.2 µM | – | – | – | – | – | – | – | – | – | – |
| – | – | – | – | – | – | – | – | N#C/C(=C\c1c[nH]c2ccc(C#N)cc12)c1ccc(Cl)c(Cl)c1 | – | – | – | 57% | 43% | 38% | 47% | 33% | 34% | 18% | 50% | 44% | inhibition of growth at 25 µM [21]: 43%; inhibition of growth at 25 µM [22]: 44% |
| 4 µM | 4.2 µM | 7.5 µM | 3.7 µM | 5 µM | 3 µM | 8.7 µM | 6.1 µM | N#C/C(=C\c1c[nH]c2c1ccc1ccccc12)c1ccc(Cl)c(Cl)c1 | 3.8 µM | 6.8 µM | 5.9 µM | – | – | – | – | – | – | – | – | – | – |
| 0.23 µM | 0.36 µM | 0.67 µM | 0.41 µM | 0.39 µM | 0.37 µM | 1.04 µM | 0.5 µM | N#C/C(=C\c1ccc2[nH]ccc2c1)c1ccc(Cl)c(Cl)c1 | 0.33 µM | 0.83 µM | 0.74 µM | – | – | – | – | – | – | – | – | – | – |
